The source of these data is US7383788B2, “Enhanced feeding and growth rates of aquatic animals fed an astaxanthin product derived from marigold extract” (DSM IP Assets B.V., priority 2002, dated 2008).

One assay has as its system Rainbow trout. In words: Field trial on rainbow trout in a commercial fish farm (pigmentation and growth). The assay is classed as in vivo. The settings on record: 90 ppm in feed. The protocol:
A field trial with Rainbow Trout was done to assess pigmentation and growth in a commercial fish farm. The fish were grown in concrete raceways where fish were stocked in two sections of different raceways. In one section we had the control treatment which was fed with feed containing synthetic astaxanthin at 90 ppm. […] The water temperature was constant at 16° C. throughout the test as was the flow rate at 60 1/sec. Fish were fed to satiate, feed consumed was weighed for each treatment and conversion rates calculated based on the initial and final biomass.

The test system of assay [1] is Penaeid shrimp (Litopenaeus vannamei). In words: Field trial on a commercial shrimp farm using several pigment sources to evaluate production. In kind it is in vivo. An excerpt: Penaeid shrimp (Litopenaeus vannamei) with an average initial weight of 0.96 gr were stocked at a density of 25.04 individuals/square meter in […]. There were three ponds for each treatment to give a total of 12 ponds. The size of the ponds differed slightly as shown in Table 3 where a summary of the yields obtained after harvesting are also presented. All ponds were fed with the same diets varying only in the type of pigment used and keeping one as a control without pigment addition. Weight of feed supplied to each pond was recorded daily and the feed conversion ratio calculated after harvesting. Culture of the shrimp was done following normal commercial procedures and doing exactly the same operations in all ponds.

Regarding `CC1=C(/C=C/C(C)=C/C=C/C(C)=C/C=C/C=C(C)/C=C/C=C(C)/C=C/C2=C(C)C(=O)[C@@H](O)CC2(C)C)C(C)(C)C[C@H](O)C1=O` [Synthetic astaxanthin, astaxanthin], in the assay on Rainbow trout, the “Average Wt gain” value turned out to be 0.188 kg and the “Average end Wt” value turned out to be 0.337 kg. Moreover, the “Conv. Ratio” value in the assay on Rainbow trout (based on initial and final biomass) is 1.56. In addition, the average weight gain in the assay with Rainbow trout (end of feeding trial) stood at 188 grams. In the assay with Rainbow trout (fed to satiate), this compound showed a Feed consumed of 125.2 kg. The “Final Biomass” value in the assay on Rainbow trout (fed to satiate, 16° C.) was 154.6 kg. The “Harvest Kg/Hect” value in assay [1] (25 ppm pigment in feed) is on record as 1,283 Kg/Hect. For the same compound, the “% Survival” value in assay [1] (25 ppm pigment in feed, at harvest after 92-100 days) was determined as 66.5%. For the same compound, the “Feed Conv Ratio” value in assay [1] (25 ppm pigment in feed, calculated after harvesting) is 1.62. Also, the “Harvest Kg” value in assay [1] (25 ppm pigment in feed, three ponds) is on record as 18,729 Kg. Further, the “survival rate (in words)” value in assay [1] (after harvesting) is recorded as “low survival rate”.
